Source: patent US12168008B2, “Oxabicycloheptanes for modulation of immune response” (LIXTE BIOTECHNOLOGY, INC., priority 2016, dated 2024)

Columns and labels:
[1] = tested on: CD4+ T cells; assay: Human mixed lymphocyte reaction (Example 13); format: cell-based
Method: FIG. 39A. DCs were induced from purified monocytes by culturing in IL4 and GM-CSF for 7 days. 10^5 purified CFSE labelled CD4+ T cells were then co-cultured with 10^4 allogenic DCs in the presence of a titration of LB-100 in duplicates or triplicates for 5 days. LB-100 was replenished on day 3. Supernatants were collected on day 5 and measured for IFN-γ production. FACS analysis was performed on the cultured cells.
In vitro activity of LB-100 in human mixed lymphocytes reactions: To further confirm the immune-modulating effect of LB-100 has clinical utility, mixed lymphocyte reactions (MLRs) were performed using PBMC from healthy human donors. Monocyte derived dendritic cells were co-cultured with allogenic CD4+ T cells labelled with cytosolic dye CFSE. LB-100 was given on the day of co-culture (Day 0) and again on Day 3. Proliferation and IFN-γ secretion by CD4 T cells were assessed on Day 5 (FIG. 39A). There was a significant increase in CD4 T cell proliferation, as measured by the percentage of dividing cells, with LB-100 treatment at 1 μM (31% compared to 20% in controls) (FIG. 39B). There was also a trend towards increased proliferation at lower LB100 concentrations (in the sub-micromolar range). […] Also examined was the effect of lineage differentiation in CD4 T cells by labeling for T-bet. […] Next tested whether LB-100 could enhance IFN-γ secretion in vitro in combination with PD1 blockade using Nivolumab. A similar MLR assay was performed with LB-100.
Human mixed lymphocyte reaction—as previously described in 39. Dendritic cells (DCs) were generated by culturing monocytes isolated from PBMC using a monocyte isolation kit (StemCell) in vitro for 7 days with 500U/ml interleukin-4 (IL-4) and 250 U/ml GM-CSF (R&D Systems). CD4+ T cells (1×10^5) isolated with CD4 isolation kit (StemCell) and labeled with CFSE (ThermoFisher) were co-cultured with allogeneic DCs (1×10^4). At the initiation of assay, a titration of LB-100 and/or Nivolumab was added. After 3 days, LB-100 was replenished to the final indicated concentration. After 5 days, culture supernatants were analyzed by ELISA (eBioscience) and cells were analyzed by flow cytometry. At least 3 separate donors were obtained and results of one representative donor were reported.

[2] = tested on: mouse B16 melanoma; assay: B16 melanoma tumor-bearing mice (FIG. 12, 17-19); format: in vivo
Method: FIG. 12. […] Treatment was started on the same day of tumor implantation. Control—PBS, Low dose—0.16 mg/kg, Medium dose—0.32 mg/kg.
FIG. 17A. CD8+CD44+ effector T cells are increased with PP2A inhibitor LB-100 treatment. Percentage of CD8+CD44+T effector cells population in tumor draining lymph node from B16 tumor bearing mice treated with LB-100 or PBS. 5 mice per group.

[3] = tested on: Naïve CD4 cells; assay: T cell stimulation and skewing of naive CD4 cells; format: cell-based, mouse
Method: Naïve CD4 cells were isolated from mice splenocytes and activated in vitro with anti-CD3 and CD28 in the presence of TGF-β or IL4 to induce development of Treg or Th2 CD4+ cells respectively. After 72 hours, intranuclear expressions of Foxp3 or GATA3 were quantitated by flow cytometry to determine percentage of Treg or Th2 cells respectively. […] In addition, the relative proportion of Th2 and Th1 CD4+ cells was quantified by labeling for T-bet. […] Next, the functional consequence of Th1 CD4+ cell with LB-100 treatment was explored. […] This was shown with both intracellular staining (FIG. 38D) and measurement of cytokine secretion (FIG. 38E-F).
T cell stimulation and skewing—Naïve CD4 cells were isolated from mice splenocytes (StemCell). Cells were activated for 3 days using immobilized anti-CD3 (10 ug/ml) and soluble anti-CD28 (2 ug/ml). Skewing conditions were as follows: TH1, 1 .ig/mL anti-IL4, 5 ng/mL IL2, and 10 ng/mL IL12; TH2, 1 .ig/mL anti-IFN-7, 5 ng/mL IL2, and 10 ng/mL IL4; Treg, 1 .ig/mL anti-IFNγ, and 1 ig/mL anti-IL4, and 2 ng/mL TGFβ1. Bead-based multianalyte flow immunoassays (BD Bioscience) were used to measure cytokine production in the supernatant per manufacturer's instruction. Absolute cell numbers were quantified with flow cytometry using counting beads (Biolegend).

CN1CCN(C(=O)C2C(C(=O)O)[C@H]3CC[C@@H]2O3)CC1 (stereo partly drawn) [LB-100]
enhancement of IFN-γ release ([1]; 0.2 μM): 3.5 fold
T-bet expression in CD4 T cells ([1]; 1 μM): significantly increased
enhancement of IFN-γ release ([1]; 1 μM): 4 fold
CD4 T cell proliferation, percentage of dividing cells ([1]; 1 μM, day 5, controls 20%): 31%
CD4 T cell proliferation ([1]; 5 μM): impaired
B16 melanoma tumor growth ([2]; every two days for 8 doses from day of implantation, 0.16 and 0.32 mg/kg): reduced mouse B16 melanoma tumor growth significantly
CD8+CD44+ effector T cells in tumor draining lymph node ([2]; vs PBS, 5 mice per group): increased
CD44+CD62L− CD4 effector T cells in lymph node ([2]; vs PBS, 5 mice per group): Increased
CD44+CD62L− CD8 effector T cells in lymph node ([2]; vs PBS, 5 mice per group): Increased
frequency of GATA3 expressing cells relative to Tbet expressing cells [3]: decreased significantly
induction of Foxp3 by TGF-β ([3]; 72 hours, dose dependent): significantly impaired
induction of GATA3 by IL-4 ([3]; 72 hours, dose dependent): significantly impaired
TNF-α and IL2 secretion ([3]; Th1 and Th2 conditions): increased
IFN-γ expression ([3]; Th1 and Th2 skewing conditions): dose dependent increase
Secretion of IL4 ([3]; Th2 conditions): decreased
